In this assay the test system is rat pituitary cells in tissue culture. Kind of assay: Bioassay of hGRF analogs: GH release from cultured pituitary cells. Type of assay: cell-based. Particulars: for Dose Needed to Release 2.01 μg/ml of GH (ED50 value for hGRF) / Maximum GH Released / Relative Maximum Activity (% of hGRF): from curves generated by ALLFIT; for GH release at dosages comparable to native hGRF: referring to Table 1; for Potency: (ED50 of hGRF)/(Dose required to give same response as ED50 of hGRF): relative to hGRF(1-44)-NH2 = 100. From the text:
The assay for biological activity, which is based on the ability to stimulate release of growth hormone in rat pituitary cells in tissue culture, has been described in detail (Culler, M. D.; Kenjo, T.: Obara, N.; Arimuar, A., Stimulation of cAMP. Accumulation by Human Pancreatic GH-Releasing Factor-(1-44). Am. J. Physiol. 1984, 247 (Endocrinol.Metab.10), E609-E615.
ALLFIT, the 4-parameter logistic curve fitting program available from the Biomedical Computer Technology Information Center, Vanderbilt Medical Center, Nashville TN, was used to determine ED50 and maximal stimulated values from the data. In several instances, the amount of GH released reached a maximum value and decreased with further increasing doses of the hGRF analogs. To simplify the data analysis, these values were not used in the calculations. The calculated maximal responses, the doses of the analog required to release the amount of GH released at the ED50 of the standard (hGRF) and the potencies of the analogs relative to hGRF, are given in Table 2. Generally all novel analogs were fully active and were able to stimulate the release of growth hormone with maximal values of GH release being within 80% of the value for natural hGRF.

Structures are written as SMILES. Square brackets hold non-standard residues; d marks the D form. Peptide text beside a SMILES is read from it. Nle = CCCC[C@H](N)C(=O)O

On to `CCCC[C@H](NC(=O)[C@@H](NC(=O)[C@H](CC(=O)O)NC(=O)[C@H](CCC(N)=O)NC(=O)[C@H](CC(C)C)NC(=O)[C@H](CC(C)C)NC(=O)[C@H](CCCCN)NC(=O)[C@H](CCCNC(=N)N)NC(=O)[C@H](C)NC(=O)[C@H](CO)NC(=O)[C@H](CC(C)C)NC(=O)[C@H](CCC(N)=O)NC(=O)CNC(=O)[C@H](CC(C)C)NC(=O)[C@@H](NC(=O)[C@H](CCCCN)NC(=O)[C@H](CCCNC(=N)N)NC(=O)[C@H](Cc1ccc(O)cc1)NC(=O)[C@H](CO)NC(=O)[C@H](CC(=O)O)NC(=O)[C@@H](NC(=O)[C@H](Cc1ccccc1)NC(=O)[C@@H](NC(=O)[C@H](C)NC(=O)[C@H](CC(N)=O)NC(=O)[C@H](C)NC(=O)[C@@H](N)Cc1ccc(O)cc1)[C@@H](C)CC)[C@@H](C)O)C(C)C)[C@@H](C)CC)C(=O)N[C@@H](CO)C(=O)N[C@@H](CCCNC(=N)N)C(=O)N[C@@H](CCC(N)=O)C(=O)N[C@@H](CCC(N)=O)C(N)=O` [[Asn^3,Asp^8,Nle^27], [Asn^3,Asp^8,Nle^27]-hGRF(1-31)--NH2] (H-YANAIFTDSYRKVLGQLSARKLLQDI[Nle]SRQQ-NH2), for which the “Dose Needed to Release 2.01 μg/ml of GH (ED50 value for hGRF)” value (“Dose Needed to Release 2.01 μg/ml of GH” for short) stood at 6.74 nM, the “Maximum GH Released” value came out at 3.53 µg/mL, the “Relative Maximum Activity (% of hGRF)” value came out at 107% and the “GH release at dosages comparable to native hGRF” value (“GH release at dosages comparable” for short) is listed as “did not induce GH release at dosages comparable to native hGRF”. In addition, the “Potency: (ED50 of hGRF)/(Dose required to give same response as ED50 of hGRF)” value is given as 5%. Further, the “GH Released (mean ± (S.E.))” value (Dose 1 × 10^-6 M) was 2.74 (0.19) μg/mL. The “GH Released (mean ± (S.E.))” value (Dose 1 × 10^-7 M) was 3.30 (0.27) μg/mL. Besides, under “Dose 1 × 10^-8 M”, the “GH Released (mean ± (S.E.))” value is given as 2.27 (0.07) μg/mL. The “GH Released (mean ± (S.E.))” value (Dose 1 × 10^-9 M) is 1.04 (0.05) μg/mL. The “GH Released (mean ± (S.E.))” value (Dose 1 × 10^-10 M) is listed as 0.58 (0.04) μg/mL. The “GH Released (mean ± (S.E.))” value (Dose 1 × 10^-11 M) was 0.65 (0.04) μg/mL. The “Potency: (ED50 of hGRF)/(Dose required to give same response as ED50 of hGRF)” value (listed as [Asn^3,Asp^8,Nle^27 ]-hGRF(1-31)--NH2) was 3%.

`CCCC[C@H](NC(=O)[C@@H](NC(=O)[C@H](CC(N)=O)NC(=O)[C@H](CCC(N)=O)NC(=O)[C@H](CC(C)C)NC(=O)[C@H](CC(C)C)NC(=O)[C@H](CCCCN)NC(=O)[C@H](CCCNC(=N)N)NC(=O)[C@H](C)NC(=O)[C@H](CO)NC(=O)[C@H](CC(C)C)NC(=O)[C@H](CCC(N)=O)NC(=O)CNC(=O)[C@H](CC(C)C)NC(=O)[C@@H](NC(=O)[C@H](CCCCN)NC(=O)[C@H](CCCNC(=N)N)NC(=O)[C@H](Cc1ccc(O)cc1)NC(=O)[C@H](CO)NC(=O)[C@H](CC(N)=O)NC(=O)[C@@H](NC(=O)[C@H](Cc1ccccc1)NC(=O)[C@@H](NC(=O)[C@H](C)NC(=O)[C@H](CC(=O)O)NC(=O)[C@H](C)NC(=O)[C@@H](N)Cc1ccc(O)cc1)[C@@H](C)CC)[C@@H](C)O)C(C)C)[C@@H](C)CC)C(=O)N[C@@H](CO)C(=O)N[C@@H](CCCNC(=N)N)C(=O)N[C@@H](CCC(N)=O)C(=O)N[C@@H](CCC(N)=O)C(N)=O` [[Asn^25,Nle^27], [Asn^25,Nle^27]-hGRF(1-31)--NH2] (H-YADAIFTNSYRKVLGQLSARKLLQNI[Nle]SRQQ-NH2): the “Dose Needed to Release 2.01 μg/ml of GH” value was determined as 0.12 nM, the “Maximum GH Released” value came out at 3.18 µg/mL, the “Relative Maximum Activity (% of hGRF)” value came to 96% and the “GH release at dosages comparable” value is “induced GH release in dosages comparable to those for native hGRF”. The “Potency: (ED50 of hGRF)/(Dose required to give same response as ED50 of hGRF)” value worked out at 267%. The “GH Released (mean ± (S.E.))” value (Dose 1 × 10^-6 M) is 3.22 (0.24) μg/mL. Further, the “GH Released (mean ± (S.E.))” value (Dose 1 × 10^-7 M) was 3.22 (0.09) μg/mL. The “GH Released (mean ± (S.E.))” value (Dose 1 × 10^-8 M) is 3.10 (0.12) μg/mL. Moreover, the “GH Released (mean ± (S.E.))” value (Dose 1 × 10^-9 M) is reported as 3.12 (0.15) μg/mL. The “GH Released (mean ± (S.E.))” value (Dose 1 × 10^-10 M) was 1.84 (0.06) μg/mL. In addition, the “GH Released (mean ± (S.E.))” value (Dose 1 × 10^-11 M) is 0.72 (0.05) μg/mL. The “times more potent than hGRF(1-44)--NH2” value (on a molar basis) is on record as 2.7 times.

As for `CCCC[C@H](NC(=O)[C@@H](NC(=O)[C@H](CC(N)=O)NC(=O)[C@H](CCC(N)=O)NC(=O)[C@H](CC(C)C)NC(=O)[C@H](CC(C)C)NC(=O)[C@H](CCCCN)NC(=O)[C@H](CCCNC(=N)N)NC(=O)[C@H](C)NC(=O)[C@H](CO)NC(=O)[C@H](CC(C)C)NC(=O)[C@H](CCC(N)=O)NC(=O)CNC(=O)[C@H](CC(C)C)NC(=O)[C@@H](NC(=O)[C@H](CCCCN)NC(=O)[C@H](CCCNC(=N)N)NC(=O)[C@H](Cc1ccc(O)cc1)NC(=O)[C@H](CO)NC(=O)[C@H](CC(=O)O)NC(=O)[C@@H](NC(=O)[C@H](Cc1ccccc1)NC(=O)[C@@H](NC(=O)[C@H](C)NC(=O)[C@H](CC(N)=O)NC(=O)[C@H](C)NC(=O)[C@@H](N)Cc1ccc(O)cc1)[C@@H](C)CC)[C@@H](C)O)C(C)C)[C@@H](C)CC)C(=O)N[C@@H](CO)C(=O)N[C@@H](CCCNC(=N)N)C(=O)N[C@@H](CCC(N)=O)C(=O)N[C@@H](CCC(N)=O)C(N)=O` [[Asn^3,Asp^8,Asn^25,Nle^27], [Asn^3,Asp^8,Asn^25,Nle^27]-hGRF(1-31)--NH2] (H-YANAIFTDSYRKVLGQLSARKLLQNI[Nle]SRQQ-NH2), the “Dose Needed to Release 2.01 μg/ml of GH” value is listed as 12.05 nM, the “Maximum GH Released” value came to 3.11 µg/mL, the “Relative Maximum Activity (% of hGRF)” value was 94% and the “GH release at dosages comparable” value is reported as “did not induce GH release at dosages comparable to native hGRF”. For the same molecule, the “Potency: (ED50 of hGRF)/(Dose required to give same response as ED50 of hGRF)” value was 3%. In addition, under “Dose 1 × 10^-6 M”, the “GH Released (mean ± (S.E.))” value is given as 3.12 (0.12) μg/mL. For the same molecule, the “GH Released (mean ± (S.E.))” value (Dose 1 × 10^-7 M) is 2.94 (0.11) μg/mL. Besides, where the note is “Dose 1 × 10^-8 M”, the “GH Released (mean ± (S.E.))” value is reported as 1.88 (0.07) μg/mL. The “GH Released (mean ± (S.E.))” value (Dose 1 × 10^-9 M) was 0.75 (0.01) μg/mL. Also, the “GH Released (mean ± (S.E.))” value (Dose 1 × 10^-10 M) was 0.61 (0.05) μg/mL. In addition, the “GH Released (mean ± (S.E.))” value (Dose 1 × 10^-11 M) is 0.60 (0.02) μg/mL. Besides, the “Potency: (ED50 of hGRF)/(Dose required to give same response as ED50 of hGRF)” value (listed as [Asn^3,Asp^8,Asn^25,Nle^27 ]-hGRF(1-31)--NH2) is 5%.

As for `CC[C@H](C)[C@H](NC(=O)[C@H](C)NC(=O)[C@H](CC(=O)O)NC(=O)[C@H](C)NC(=O)[C@@H](N)Cc1ccc(O)cc1)C(=O)N[C@@H](Cc1ccccc1)C(=O)N[C@H](C(=O)N[C@@H](CC(N)=O)C(=O)N[C@@H](CO)C(=O)N[C@@H](Cc1ccc(O)cc1)C(=O)N[C@@H](CCCNC(=N)N)C(=O)N[C@@H](CCCCN)C(=O)N[C@H](C(=O)N[C@@H](CC(C)C)C(=O)NCC(=O)N[C@@H](CCC(N)=O)C(=O)N[C@@H](CC(C)C)C(=O)N[C@@H](CO)C(=O)N[C@@H](C)C(=O)N[C@@H](CCCNC(=N)N)C(=O)N[C@@H](CCCCN)C(=O)N[C@@H](CC(C)C)C(=O)N[C@@H](CC(C)C)C(=O)N[C@@H](CCC(N)=O)C(=O)N[C@@H](CC(=O)O)C(=O)N[C@H](C(=O)N[C@@H](CCSC)C(=O)N[C@@H](CO)C(=O)N[C@@H](CCCNC(=N)N)C(=O)N[C@@H](CCC(N)=O)C(=O)N[C@@H](CCC(N)=O)C(=O)NCC(=O)N[C@@H](CCC(=O)O)C(=O)N[C@@H](CO)C(=O)N[C@@H](CC(N)=O)C(=O)N[C@@H](CCC(N)=O)C(=O)N[C@@H](CCC(=O)O)C(=O)N[C@@H](CCCNC(=N)N)C(=O)NCC(=O)N[C@@H](C)C(=O)N[C@@H](CCCNC(=N)N)C(=O)N[C@@H](C)C(=O)N[C@@H](CCCNC(=N)N)C(=O)N[C@@H](CC(C)C)C(N)=O)[C@@H](C)CC)C(C)C)[C@@H](C)O` [hGRF(1-44)-NH2, hGRF(1-44)--NH2, reference compound], the “Dose Needed to Release 2.01 μg/ml of GH” value came out at 0.32 nM, the “Maximum GH Released” value was 3.31 µg/mL, the “Relative Maximum Activity (% of hGRF)” value worked out at 100% and the “Potency: (ED50 of hGRF)/(Dose required to give same response as ED50 of hGRF)” value worked out at 100%. Moreover, the “GH Released (mean ± (S.E.))” value (Dose 1 × 10^-6 M) is listed as 2.81 (0.13) μg/mL. The “GH Released (mean ± (S.E.))” value (Dose 1 × 10^-7 M) is recorded as 3.17 (0.12) μg/mL. For the same molecule, for the setting “Dose 1 × 10^-8 M”, the “GH Released (mean ± (S.E.))” value was 3.44 (0.23) μg/mL. The “GH Released (mean ± (S.E.))” value (Dose 1 × 10^-9 M) is 2.84 (0.12) μg/mL. The “GH Released (mean ± (S.E.))” value (Dose 1 × 10^-10 M) is 1.16 (0.04) μg/mL. The “GH Released (mean ± (S.E.))” value (Dose 1 × 10^-11 M) was 0.73 (0.03) μg/mL. The “Biological activity compared with natural hGRF(1-44)--NH2” value (natural hGRF isolated from a human pancreatic tumor (Salk Institute standard)) is on record as “identical to the natural hGRF(1-44)--NH2”.
